From publication PMC11943507 (Marine Drugs, 2025)
“And” between values parts separate entries of the source, which are not always exact repeats. Equal values may be shown once. “Also recorded” adds a separate entry of the source. Read-outs that look alike come from different tables or passages of the source.

What was measured:
[1] = molecular target: T1, hNav1.1 (Homo sapiens, UniProt P35498); type: cell-based
[2] = molecular target: T1, hNav1.1; type: cell-based; remark: listed apart in the source
[3] = molecular target: T1, hNav1.1; type: cell-based; remark: listed apart in the source
[4] = molecular target: T1, hNav1.1; assay: cell-based; type: cell-based
[5] = molecular target: T1, hNav1.1
[6] = test system: Nav1.1; settings: cited from earlier work
[7] = test system: Nav1.7; settings: cited from earlier work
[8] = test system: Nav1.6; settings: cited from earlier work

## C=C1[C@@H](O)[C@@H]2O[C@]3(CC[C@H](/C=C/[C@@H](C)[C@@H]4CC(C)=C[C@@]5(O[C@H](C[C@@](C)(O)C(=O)O)CC[C@H]5O)O4)O3)CC[C@H]2O[C@@H]1[C@@H](O)C[C@H](C)[C@H]1O[C@@]2(CC[C@H]1C)OCCC[C@H]2C [DTX1, dinophysistoxin 1]
[1]
  agonist activity in initial screening: did not exhibit any potential agonist or inhibitor activity
[2]
  fluorescence intensity stimulated by 30 μM veratridine, inhibition mode concentration-response: not significantly inhibited
[3]
  inhibitory effect in initial screening: no significant inhibition; also recorded: did not exhibit any potential agonist or inhibitor activity
[4]
  fluorescence signal in agonist mode concentration-response: no significant increase

## NC1=N[C@H](O)[C@H]2[C@H]3O[C@]4(O)O[C@@H]([C@@H](O)[C@@]2(N1)[C@@H]4O)[C@]3(O)CO [TTX, tetrodotoxin]
[5]
  suppression of hNav1.1 current signal: almost completely suppressed
[5]; read-out: IC50 determined by patch clamp
  IC50: 0.00327 µM and ~0.00327 µM
[6]
  IC50: […]
[2]
  IC50: 0.0184 µM
  inhibition of the channel-opening effect of 30 μM veratridine: almost completely inhibited

## COc1ccc(C(=O)O[C@H]2CC[C@@]3(C)[C@@H]4CC[C@H]5[C@]6(O)C[C@H](O)[C@@]7(O)[C@@H](CN8C[C@@H](C)CC[C@H]8[C@@]7(C)O)[C@]6(O)C[C@@]53O[C@]24O)cc1OC [veratridine]
[7]; read-out: EC50, tail and sustained currents
  EC50: 9.53 µM
[7]; read-out: IC50, inhibitory effect on the peak current
  IC50: 18.4 µM
[8]
  peak amplitude of the sodium current: enhanced
  peak current: suppressed
[4]
  fluorescence signal relative to the maximum fluorescence signal: approximately 80%
[4]; EC50
  EC50: ~24 µM and 24 µM
